Test results: ChEMBL document CHEMBL1201862, “PubChem BioAssay data set” (2004)
Activity calls are given as the source filed them.

Tests used:
Cytochrome P450 2C19 = Cytochrome P450 2C19 (Homo sapiens, UniProt P33261); experiment: Cytochrome panel assay with activity outcomes. Panel member name: p450-cyp2c19 Compounds with AC50 equal or less than 10 uM are considered active; assay type: functional
[1] = cytotoxicity toward NIH3T3 fibroblasts, dose response, counter-screen, cell-based, ATP luminescence, mouse fibroblasts (AID 2010); assay type: functional;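 further: cells exposed to compound for about 90 hours before reading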
[2] = inhibitors of intracellular T. cruzi replication, confirmation, NIH3T3 host cells, beta-gal luminescence (AID 2044); assay type: functional, cell-based;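 further: intracellular parasites grown in NIH/3T3 mouse fibroblasts as host cells; luminescent beta-galactosidase reporter signal from transgenic T. cruzi replicating inside host cells; inhibitors lower the luminescence signal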
[3] = C. albicans growth with fluconazole, confirmation, fluorescence, retest (AID 2467); assay type: functional, cell-based
[4] = NIH-3T3 fibroblast cytotoxicity, dose response, cytotoxicity control, cell-based, fluorescence, Alamar Blue, secondary assay (AID 2327); assay type: functional;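 further: NIH-3T3 mouse fibroblasts cultured with fluconazole at 8 µg/mL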
[5] = biological target: T1, Corticotropin-releasing factor receptor 2/Corticotropin-releasing factor-binding protein (Homo sapiens, UniProt P24387+Q13324); experiment: activators of CRF receptor 2 with binding protein – uHTS hits, confirmation (AID 602473); assay type: functional; conditions: read-out: EC50_Mean
T1 sequence (Q13324 whole entry): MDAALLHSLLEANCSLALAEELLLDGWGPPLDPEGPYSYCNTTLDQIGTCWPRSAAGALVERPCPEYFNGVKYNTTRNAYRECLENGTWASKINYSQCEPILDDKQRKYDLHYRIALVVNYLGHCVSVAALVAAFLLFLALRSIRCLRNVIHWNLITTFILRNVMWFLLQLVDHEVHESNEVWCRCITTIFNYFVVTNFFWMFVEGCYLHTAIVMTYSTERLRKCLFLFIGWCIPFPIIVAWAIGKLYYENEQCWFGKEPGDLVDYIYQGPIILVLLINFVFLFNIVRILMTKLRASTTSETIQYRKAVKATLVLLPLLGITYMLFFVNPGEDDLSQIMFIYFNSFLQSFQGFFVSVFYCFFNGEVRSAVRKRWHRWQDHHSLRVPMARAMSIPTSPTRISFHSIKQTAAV
T1 sequence (P24387 whole entry): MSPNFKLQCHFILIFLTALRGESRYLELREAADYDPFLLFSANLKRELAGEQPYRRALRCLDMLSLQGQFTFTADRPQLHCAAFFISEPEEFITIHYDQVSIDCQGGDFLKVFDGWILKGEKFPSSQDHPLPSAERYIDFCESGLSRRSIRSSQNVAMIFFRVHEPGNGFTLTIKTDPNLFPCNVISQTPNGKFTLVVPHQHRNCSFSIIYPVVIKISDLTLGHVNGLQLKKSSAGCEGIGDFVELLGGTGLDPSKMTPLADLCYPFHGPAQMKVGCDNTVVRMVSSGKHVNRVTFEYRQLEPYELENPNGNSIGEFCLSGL

Cytochrome P450 3A4 = Cytochrome P450 3A4 (Homo sapiens, UniProt P08684);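 further: CYP3A4 tested as one member of a cytochrome P450 panel screen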
Cytochrome P450 2C9 = Cytochrome P450 2C9 (Homo sapiens, UniProt P11712)
Cytochrome P450 1A2 = biological target: T2, Cytochrome P450 1A2 (Homo sapiens, UniProt P05177);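 further: PubChem cytochrome P450 panel assay, CYP1A2 panel member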
T2 sequence (P05177 whole entry): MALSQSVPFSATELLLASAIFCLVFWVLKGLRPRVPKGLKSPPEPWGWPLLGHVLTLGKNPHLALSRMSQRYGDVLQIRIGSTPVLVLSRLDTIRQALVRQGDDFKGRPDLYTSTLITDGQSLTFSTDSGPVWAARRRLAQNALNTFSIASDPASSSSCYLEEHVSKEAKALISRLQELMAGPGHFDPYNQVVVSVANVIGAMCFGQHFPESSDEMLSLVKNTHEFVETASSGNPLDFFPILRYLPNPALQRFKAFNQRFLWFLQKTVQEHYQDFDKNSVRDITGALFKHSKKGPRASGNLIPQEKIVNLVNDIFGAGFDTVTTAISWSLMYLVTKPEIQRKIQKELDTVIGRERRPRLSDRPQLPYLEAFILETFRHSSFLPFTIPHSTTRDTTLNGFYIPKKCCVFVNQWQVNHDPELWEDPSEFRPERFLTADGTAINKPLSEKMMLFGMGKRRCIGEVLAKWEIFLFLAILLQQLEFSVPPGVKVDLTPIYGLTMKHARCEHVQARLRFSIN

Sequence of Cytochrome P450 2C9 (P11712 whole entry): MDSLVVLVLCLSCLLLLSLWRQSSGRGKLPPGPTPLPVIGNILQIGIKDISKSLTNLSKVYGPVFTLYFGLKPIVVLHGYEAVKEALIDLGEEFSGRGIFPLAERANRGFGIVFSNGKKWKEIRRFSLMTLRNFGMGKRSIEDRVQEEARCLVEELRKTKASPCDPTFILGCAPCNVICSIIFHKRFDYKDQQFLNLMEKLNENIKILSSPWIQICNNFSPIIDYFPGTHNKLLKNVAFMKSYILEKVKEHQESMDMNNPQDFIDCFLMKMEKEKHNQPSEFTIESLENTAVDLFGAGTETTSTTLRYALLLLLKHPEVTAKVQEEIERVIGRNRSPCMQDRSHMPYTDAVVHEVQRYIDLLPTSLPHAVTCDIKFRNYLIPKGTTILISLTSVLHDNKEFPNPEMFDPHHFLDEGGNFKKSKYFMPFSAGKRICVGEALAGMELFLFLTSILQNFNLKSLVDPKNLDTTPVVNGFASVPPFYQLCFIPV
Sequence of Cytochrome P450 3A4 (P08684 whole entry): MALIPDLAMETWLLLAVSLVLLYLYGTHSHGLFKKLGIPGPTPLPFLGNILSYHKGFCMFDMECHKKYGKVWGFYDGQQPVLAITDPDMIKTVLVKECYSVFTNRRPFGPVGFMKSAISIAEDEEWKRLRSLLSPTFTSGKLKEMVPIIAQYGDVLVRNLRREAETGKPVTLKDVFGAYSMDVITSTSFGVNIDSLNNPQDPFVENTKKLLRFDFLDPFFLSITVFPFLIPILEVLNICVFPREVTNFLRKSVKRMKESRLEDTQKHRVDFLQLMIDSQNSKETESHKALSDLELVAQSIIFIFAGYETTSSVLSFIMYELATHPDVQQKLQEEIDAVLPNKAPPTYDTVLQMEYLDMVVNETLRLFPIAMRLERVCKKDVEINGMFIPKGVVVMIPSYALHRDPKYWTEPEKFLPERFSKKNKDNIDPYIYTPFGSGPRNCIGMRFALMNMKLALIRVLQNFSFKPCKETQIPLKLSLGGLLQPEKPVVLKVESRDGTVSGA
Sequence of Cytochrome P450 2C19 (P33261 whole entry): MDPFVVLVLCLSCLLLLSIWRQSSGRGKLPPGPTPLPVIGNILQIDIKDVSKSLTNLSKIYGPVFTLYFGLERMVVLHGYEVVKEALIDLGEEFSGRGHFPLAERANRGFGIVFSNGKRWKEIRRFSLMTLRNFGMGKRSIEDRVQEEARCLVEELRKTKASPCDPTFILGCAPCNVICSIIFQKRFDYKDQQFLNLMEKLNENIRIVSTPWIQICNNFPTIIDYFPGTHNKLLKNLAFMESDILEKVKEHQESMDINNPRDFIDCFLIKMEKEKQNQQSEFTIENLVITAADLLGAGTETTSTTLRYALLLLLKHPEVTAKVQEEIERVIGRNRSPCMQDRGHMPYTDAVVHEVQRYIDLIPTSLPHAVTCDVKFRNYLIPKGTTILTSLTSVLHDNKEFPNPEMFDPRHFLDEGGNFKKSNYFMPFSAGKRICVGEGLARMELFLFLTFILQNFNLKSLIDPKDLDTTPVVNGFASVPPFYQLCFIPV

O=C1NCCc2c1[nH]c1ccccc21
AC50 (Cytochrome P450 2C19; read-out: AC50): 15.8 µM (inconclusive)

COc1ccc(CN2CCN(Cc3nc4ccccc4s3)CC2CCO)c(C)c1C (centres undefined)
EC50 [1]: > 60 µM (inconclusive)
EC50 [2]: 0.132 µM (active)

COc1cccc(CN(C(=O)c2cc3ccccc3oc2=O)C2CC2)c1
EC50 [3]: > 38 µM (not active)
EC50 [4]: 18.6 µM (inconclusive)

Cc1ccc(C(=O)CC(=O)c2ccc(C(C)(C)C)cc2)cc1
EC50 [3]: > 38 µM (not active)
EC50 [4]: > 160 µM (inactive)

O=[N+]([O-])c1ccc2[nH]c(-[n+]3c(-c4ccccc4)cc(-c4ccccc4)cc3-c3ccccc3)nc2c1
EC50 [1]: > 60 µM (not active)
EC50 [2]: 1.18 µM (active)

Cc1ccc2c3ncn(Cc4ccco4)c(O)c-3nc2c1
EC50 [5]: > 53 µM (inactive)

CC(C)CN1CC[C@@]2(CCCN(C(=O)c3csnn3)C2)C1
AC50 (Cytochrome P450 3A4): 20 µM (inconclusive)

O=C(c1ccc2c(=O)n(Cc3ccco3)c(=S)[nH]c2c1)N1CCN(c2ccccc2)CC1
AC50 (Cytochrome P450 2C9): 25.1 µM (inconclusive)
AC50 (Cytochrome P450 1A2): 3.16 µM (inconclusive)

Cc1cccc(OCC(=O)N2CCC(N3CCCCCC3)CC2)c1
AC50 (Cytochrome P450 2C19; read-out: AC50): 39.8 µM (inconclusive)

COC(=O)c1cc2c(ccn2-c2ccc(F)cc2)n1Cc1ccc(OC(C)=O)cc1
EC50 [1]: > 60 µM (not active)
EC50 [2]: 2.84 µM (active)

CCC(=O)Nc1cccc(NC(=O)c2cccc([N+](=O)[O-])c2)c1
AC50 (Cytochrome P450 2C9): 17.8 µM (inconclusive)
AC50 (Cytochrome P450 2C19): inconclusive

CC(C)CN(C(=O)c1cc([N+](=O)[O-])cc([N+](=O)[O-])c1)C1CCS(=O)(=O)C1 (centres undefined)
EC50 [1]: > 30 µM (not active)
EC50 [2]: 1.31 µM (active)

OCC[n+]1ccc(/C=C/c2c[nH]c3ccccc23)cc1
EC50 [5]: 8.55 µM (active)

O=C(COC(=O)c1cnccn1)NCc1ccccc1
AC50 (Cytochrome P450 2C9): 12.6 µM (inconclusive)
AC50 (Cytochrome P450 2C19; read-out: AC50): 39.8 µM (inconclusive)

COc1ccc(-n2c(=O)c(-c3cccs3)nc3cnc(Nc4ccccc4)nc32)cc1
AC50 (Cytochrome P450 1A2): 31.6 µM (inconclusive)

O=C(Nc1ccncc1)Nc1cc(Cl)ccc1Cl
EC50 [1]: > 30 µM (not active)
EC50 [2]: 0.469 µM (active)

Cc1ccc(COc2coc(CO)cc2=O)cc1
AC50 (Cytochrome P450 1A2): 15.8 µM (inconclusive)

Cc1ccc(C(=O)N2CCN(c3cc(O)nnc3-c3ccccc3)CC2)cc1
AC50 (Cytochrome P450 2C9): 31.6 µM (inconclusive)

COc1ccc(NC(=O)c2cc(S(=O)(=O)N3CCS(=O)(=O)CC3)ccc2Cl)cc1
AC50 (Cytochrome P450 3A4): 14.1 µM (inconclusive)

C=CCc1cccc(/C=N/NC(=O)c2ccccc2Br)c1O
EC50 [1]: 8.77 µM (active)
EC50 [2]: 1.72 µM (active)

CC(CCc1ccccc1)NC(=O)C(=O)NCCO (centres undefined)
AC50 (Cytochrome P450 2C9): 0.794 µM (inconclusive)

Cc1nn(Cc2ccc(Cl)cc2)c(C)c1NC(=O)CCCn1nc([N+](=O)[O-])c(Cl)c1C
EC50 [1]: > 30 µM (not active)
EC50 [2]: 0.318 µM (active)

CC1CCN(CCOc2cc(Cl)ccc2Cl)CC1
AC50 (Cytochrome P450 2C9): 0.891 µM (inconclusive)

Brc1ccc(CSc2nnc(-c3cnccn3)n2Cc2ccco2)cc1
EC50 [3]: 1.58 µM (active)
EC50 [4]: > 160 µM (inconclusive)

COCCn1c(=O)c(-c2cccc(C#N)c2)nc2cnc(Oc3ccccc3)nc21
AC50 (Cytochrome P450 2C19; read-out: AC50): 39.8 µM (inconclusive)

Cc1c(C(=O)Nc2cccc(Cl)c2)c2ccccn2c1CCc1ccncc1
EC50 [1]: > 30 µM (not active)
EC50 [2]: 1.19 µM (active)

Cc1cccc2cc(CN(Cc3cccnc3)C(=O)c3ccccc3F)c(Cl)nc12
EC50 [1]: > 60 µM (not active)
EC50 [2]: 0.204 µM (active)

CN1CCN(S(=O)(=O)c2ccc3ncc(C(=O)O)c(O)c3c2)CC1
AC50 (Cytochrome P450 2C19; read-out: AC50): 22.4 µM (inconclusive)

Cc1c(Nc2scc(-c3ccccc3)[n+]2-c2ccccc2)c(=O)n(-c2ccccc2)n1C
EC50 [3]: 0.111 µM (active)
EC50 [4]: 18 µM (active)

COC(=O)c1[nH]c2ccccc2c1NC(=O)CN1CCCc2ccccc21
EC50 [1]: > 60 µM (not active)
EC50 [2]: 0.89 µM (active)

CC1=CC(=C(C#N)c2nc3ccccc3s2)C=C(C)N1c1ccc(F)cc1F
EC50 [5]: 10.2 µM (active)

CCc1ccc(-n2nnnc2SCC(=O)Nc2ccc(NC(C)=O)cc2)cc1
EC50 [1]: > 60 µM (not active)
EC50 [2]: 2.19 µM (active)

C/C(O)=C(/C#N)C(=O)Nc1cc(Br)ccc1Br
AC50 (Cytochrome P450 3A4): 15.8 µM (inconclusive)

COCCCn1c(SCc2ccccc2)nc2cc(OC)c(OC)cc2c1=N
EC50 [1]: 11.5 µM (active)
EC50 [2]: 1.69 µM (active)

CCCC[C@H]1C[C@@H]1[C@@H]1N(P(=O)(c2ccccc2)c2ccccc2)[C@](CO)(c2ccccc2)CC12CC2
AC50 (Cytochrome P450 2C19; read-out: AC50): 7.94 µM (inconclusive)

Cc1cc(C(=O)N[C@@H](c2ccccc2)[C@]2(C)C[C@H]2[C@@H](C)C(=O)Nc2ccc3ccccc3c2)n(C)n1
AC50 (Cytochrome P450 1A2): 12.6 µM (inconclusive)

O=C(Nc1cccc(C(F)(F)F)c1)c1cccnc1
EC50 [3]: 4.39 µM (active)
EC50 [4]: > 160 µM (inactive)

CC(=O)NC(NC(C)=O)c1ccc(Br)cc1
AC50 (Cytochrome P450 1A2): 10 µM (inconclusive)

CC(C)CNS(=O)(=O)c1cc(C(=O)N2CC(C)OC(C)C2)c(Cl)cc1Cl (centres undefined)
AC50 (Cytochrome P450 2C9): 25.1 µM (inconclusive)
AC50 (Cytochrome P450 2C19; read-out: AC50): 25.1 µM (inconclusive)

COc1ccc(OC)c(CN2CCN(C(=O)CCNC(=O)c3ccc(Br)cc3)CC2)c1
EC50 [1]: > 60 µM (not active)
EC50 [2]: 0.563 µM (active)

N=C(N)NCc1cccc(I)c1 [IOBENGUANE]
AC50 (Cytochrome P450 1A2): 12.6 µM (inconclusive)

Cc1cccc(C)c1NC(=S)NC(=O)CCc1ccccc1
AC50 (Cytochrome P450 2C9): 25.1 µM (inconclusive)
AC50 (Cytochrome P450 1A2): 22.4 µM (inconclusive)

Cc1ccc(S(=O)(=O)n2ccc(-c3cccc(OCc4c(F)cccc4Cl)c3)n2)cc1
AC50 (Cytochrome P450 3A4): 7.94 µM (inconclusive)

NC(=S)N/N=C/c1ccc(-n2nncc2-c2ccc(Cl)cc2)cc1
EC50 [1]: > 60 µM (not active)
EC50 [2]: 1.64 µM (active)

Cc1ccc(C)c(S(=O)(=O)NC(CC(C)C)C(=O)O)c1 (centres undefined)
AC50 (Cytochrome P450 2C19; read-out: AC50): 39.8 µM (inconclusive)

Cc1ccccc1CN1C2=NCCN2C(=O)C2=C1CCN(Cc1ccccc1)C2
AC50 (Cytochrome P450 3A4): 3.98 µM (inconclusive)

COc1ccccc1N(CC(=O)NCC1CCCO1)C(=O)CNS(=O)(=O)c1ccc(C)cc1 (centres undefined)
AC50 (Cytochrome P450 2C9): 31.6 µM (inconclusive)
AC50 (Cytochrome P450 2C19; read-out: AC50): 35.5 µM (inconclusive)

Cc1cccc2c1Oc1ccccc1[C@@H]2NC(=O)c1ccc([N+](=O)[O-])cc1
AC50 (Cytochrome P450 2C9): 7.94 µM (inconclusive)

COCC(=O)N1CCC2(CC1)CCN(c1cccc(-c3ccccc3)c1)CC2
AC50 (Cytochrome P450 2C19; read-out: AC50): 39.8 µM (inconclusive)

C=CC/N=C1\CC(C)(C)CC(O)=C1C(=O)c1ccccc1
AC50 (Cytochrome P450 3A4): 25.1 µM (inconclusive)

CCCCNC(=O)c1cn(C)c2ccc(S(=O)(=O)N3CCCC3)cc2c1=O
EC50 [4]: > 150 µM (inactive)

CC(C)(Oc1ccc([C@@H]2CC2(Cl)Cl)cc1)C(=O)O
AC50 (Cytochrome P450 2C9): 31.6 µM (inconclusive)

O=C(CSc1nc(=O)n2ccccc2n1)N1N=C(c2cccs2)CC1c1ccc(F)cc1 (centres undefined)
EC50 [1]: > 60 µM (not active)
EC50 [2]: 1.51 µM (active)

CC[N+](CC)(CC)CCOc1ccc(/C=C\c2ccccc2)cc1
AC50 (Cytochrome P450 1A2): 31.6 µM (inconclusive)

O=C(C1=C[C@@H](c2csc3ccccc23)C[C@@H](OCc2ccc(CO)cc2)O1)N1CCN(Cc2ccccc2)CC1
EC50 [1]: > 60 µM (not active)
EC50 [2]: 0.888 µM (active)

Cc1ccc(S(=O)(=O)c2nc(NCc3ccc4c(c3)OCO4)sc2Cl)cc1
EC50 [1]: > 60 µM (not active)
EC50 [2]: 0.39 µM (active)

Cc1cc(Cl)ccc1OC(C)C(=O)Nc1ccccc1N1CCOCC1 (centres undefined)
EC50 [5]: 6 µM (active)

Cc1onc(-c2ccccc2)c1CNC(=O)Nc1ccc(C(F)(F)F)cc1
EC50 [1]: > 60 µM (not active)
EC50 [2]: 4.33 µM (active)

O=C(/C=C\c1ccc(-c2cccc([N+](=O)[O-])c2)o1)N1CCOCC1
EC50 [3]: > 38 µM (not active)
EC50 [4]: > 150 µM (inactive)
